Laboratory results taken from the supplement of paper PMC4977894.
± gives the standard deviation of the averaged measurements.

Tests used:
[1] = system: Homo sapiens (human subject panel, olfactory perception); experiment: perceived odor familiarity rating (rating 0-100); higher = more familiar
Outline: (§1)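 Values for familiarity, intensity and pleasantness are averaged over subjects. The panel of 55 healthy people aged 18–50 excluded the six lowest performers and rated each paraffin-oil dilution of a molecule at high and low concentrations. Ratings were made only for stimuli the subject reported smelling, on a slider converted to a 0–100 scale.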

[2] = system: Homo sapiens (human subject panel, olfactory perception); experiment: perceived odor pleasantness rating (rating 0-100); higher = more pleasant
Outline: as §1

[3] = system: Homo sapiens (human subject panel, olfactory perception); experiment: perceived odor intensity rating (rating 0-100); higher = stronger perceived smell
Outline: as §1

[4] = odor dilution in paraffin oil: 1/1,000
[5] = odor dilution in paraffin oil: 1/100,000
[6] = odor dilution in paraffin oil: 1/10,000,000
[7] = odor dilution in paraffin oil: 1/10

| Compound | perceived odor familiarity rating [1, 4] | perceived odor familiarity rating [1, 5] | perceived odor pleasantness rating [2, 4] | perceived odor pleasantness rating [2, 5] | perceived odor intensity rating [3, 4] | perceived odor intensity rating [3, 5] | perceived odor familiarity rating [1, 6] | perceived odor pleasantness rating [2, 6] | perceived odor intensity rating [3, 6] | perceived odor familiarity rating [1, 7] | perceived odor pleasantness rating [2, 7] | perceived odor intensity rating [3, 7] |
| --- | --- | --- | --- | --- | --- | --- | --- | --- | --- | --- | --- | --- |
| CC(C)C=O [Isobutyraldehyde] | 43.1 ± 29 | 39 ± 31 | 24.3 ± 22 | 27.3 ± 19 | 77.5 ± 24 | 61.6 ± 28 |  |  |  |  |  |  |
| CC(C)C(=O)O [Isobutyric acid] |  | 43.5 ± 31 |  | 25 ± 20 |  | 56.8 ± 30 | 39.6 ± 26 | 49 ± 27 | 22.6 ± 28 |  |  |  |
| C/C=C\c1ccc(O)c(OC)c1 [Isoeugenol] | 71.4 ± 27 | 60 ± 29 | 68.4 ± 26 | 66.9 ± 24 | 81.6 ± 15 | 64.5 ± 23 |  |  |  |  |  |  |
| CC=Cc1ccc(OC(=O)Cc2ccccc2)c(OC)c1 [Isoeugenyl phenylacetate] | 68 ± 29 | 55.8 ± 30 | 56.2 ± 32 | 59.7 ± 26 | 78.7 ± 18 | 42.4 ± 32 |  |  |  |  |  |  |
| CC1=CC(=O)CC(C)(C)C1 [Isophorone] | 50.2 ± 35 | 40.4 ± 28 | 51.5 ± 25 | 54.3 ± 24 | 60.1 ± 25 | 21.6 ± 24 |  |  |  |  |  |  |
| C=C(C)OC(C)=O [Isopropenyl acetate] |  | 31.1 ± 27 |  | 46.9 ± 24 |  | 27.1 ± 25 | 38.2 ± 31 | 45.5 ± 21 | 18.8 ± 26 |  |  |  |
| CC(C)O [Isopropyl alcohol] | 29.4 ± 29 | 36.5 ± 28 | 41.1 ± 24 | 38.3 ± 18 | 11.8 ± 18 | 21.9 ± 23 |  |  |  |  |  |  |
| CCCCCCCCCCCCCC(=O)OC(C)C [Isopropyl myristate] | 35.2 ± 26 |  | 50.6 ± 23 |  | 20.3 ± 25 |  |  |  |  | 24.4 ± 24 | 45.4 ± 21 | 26 ± 27 |
| C/C=C/c1ccc2c(c1)OCO2 [Isosafrole] | 56.4 ± 30 | 29 ± 28 | 59.6 ± 24 | 54.6 ± 18 | 44.7 ± 30 | 14.4 ± 15 |  |  |  |  |  |  |
| C[C@H](N)C(=O)O [L-Alanine] | 23.8 ± 22 |  | 45.9 ± 20 |  | 14.7 ± 22 |  |  |  |  | 40.9 ± 32 | 55.7 ± 28 | 31.9 ± 30 |
| N=C(N)NCCC[C@H](N)C(=O)O [L-Arginine] | 30.3 ± 24 |  | 44.6 ± 19 |  | 20.4 ± 22 |  |  |  |  | 29.4 ± 33 | 47.9 ± 24 | 19.2 ± 25 |
| N[C@@H](CS)C(=O)O [L-Cysteine] | 33.8 ± 28 |  | 39 ± 23 |  | 33.4 ± 30 |  |  |  |  | 46.2 ± 36 | 12.8 ± 20 | 71.7 ± 30 |
| N[C@@H](CCC(=O)O)C(=O)O [L-Glutamic acid] | 30.3 ± 31 |  | 47.5 ± 26 |  | 29.8 ± 27 |  |  |  |  | 34.7 ± 30 | 37.1 ± 23 | 52.7 ± 31 |
| NC(=O)CC[C@H](N)C(=O)O [L-Glutamine] | 32.6 ± 26 | 35.8 ± 30 | 51.7 ± 21 | 49.6 ± 27 | 29.1 ± 28 | 19 ± 27 |  |  |  |  |  |  |
| N[C@@H](Cc1c[nH]cn1)C(=O)O [L-Histidine] | 28.5 ± 28 |  | 44.3 ± 26 |  | 19.9 ± 24 |  |  |  |  | 44.2 ± 29 | 34.6 ± 26 | 53.2 ± 34 |
| CC(C)C[C@H](N)C(=O)O [L-Leucine] | 42.9 ± 31 |  | 46.4 ± 27 |  | 46.9 ± 29 |  |  |  |  | 45.5 ± 31 | 22.9 ± 26 | 70.9 ± 27 |
| NCCCC[C@H](N)C(=O)O [L-Lysine] | 48.9 ± 31 |  | 27.4 ± 22 |  | 59.1 ± 30 |  |  |  |  | 45.4 ± 34 | 18.5 ± 24 | 81.7 ± 22 |
| CC(=O)OC1CC(C)CCC1C(C)C [L-Menthyl acetate (replicate)] | 39.2 ± 30 |  | 58.9 ± 18 |  | 34.3 ± 28 |  |  |  |  | 56.9 ± 30 | 61.6 ± 21 | 59.6 ± 29 |

| Compound | perceived odor familiarity rating [1, 4] | perceived odor familiarity rating [1, 5] | perceived odor pleasantness rating [2, 4] | perceived odor pleasantness rating [2, 5] | perceived odor intensity rating [3, 4] | perceived odor intensity rating [3, 5] | perceived odor familiarity rating [1, 6] | perceived odor pleasantness rating [2, 6] | perceived odor intensity rating [3, 6] | perceived odor familiarity rating [1, 7] | perceived odor pleasantness rating [2, 7] | perceived odor intensity rating [3, 7] |
| --- | --- | --- | --- | --- | --- | --- | --- | --- | --- | --- | --- | --- |
| CC(=O)OC1CC(C)CCC1C(C)C [L-Menthyl acetate] | 45.6 ± 25 |  | 53.4 ± 23 |  | 15.4 ± 24 |  |  |  |  | 57.8 ± 31 | 61.5 ± 25 | 63.7 ± 26 |
| CSCC[C@H](N)C(=O)O [L-Methionine] | 41.6 ± 30 |  | 31.5 ± 25 |  | 48.3 ± 34 |  |  |  |  | 45.7 ± 36 | 18.4 ± 21 | 78.9 ± 23 |
| N[C@@H](Cc1ccccc1)C(=O)O [L-Phenylalanine] | 33.7 ± 31 |  | 44.3 ± 29 |  | 30.1 ± 30 |  |  |  |  | 39.1 ± 28 | 39.9 ± 28 | 34.4 ± 33 |
| O=C(O)[C@@H]1CCCN1 [L-Proline] | 45.8 ± 35 |  | 22.8 ± 24 |  | 60.2 ± 31 |  |  |  |  | 45.3 ± 30 | 27.9 ± 28 | 81.4 ± 20 |
| N[C@@H](Cc1ccc(O)cc1)C(=O)O [L-Tyrosine] | 37.4 ± 27 | 26.6 ± 26 | 44 ± 23 | 44.1 ± 30 | 30.7 ± 28 | 25.3 ± 33 |  |  |  |  |  |  |
| CC(C)[C@H](N)C(=O)O [L-Valine] | 41.5 ± 34 |  | 50.5 ± 24 |  | 33.1 ± 33 |  |  |  |  | 39.1 ± 31 | 40.9 ± 25 | 42.1 ± 29 |
| CCCCCCCCCCCC(=O)O [Lauric acid (replicate)] | 34.1 ± 27 |  | 35.4 ± 22 |  | 36 ± 32 |  |  |  |  | 50.6 ± 32 | 28.8 ± 22 | 72.2 ± 25 |
| CCCCCCCCCCCC(=O)O [Lauric acid] | 37.4 ± 33 |  | 45.8 ± 25 |  | 25.3 ± 24 |  |  |  |  | 49.1 ± 34 | 28.7 ± 20 | 71.6 ± 27 |
| CCCCCCCCCCCCOC(C)=O [Lauryl acetate] | 33.3 ± 27 | 36.6 ± 27 | 43.5 ± 24 | 49.5 ± 26 | 33 ± 30 | 23 ± 27 |  |  |  |  |  |  |
| CCCCCCCCCCCCO [Lauryl alcohol] | 32 ± 30 |  | 43 ± 26 |  | 24.8 ± 31 |  |  |  |  | 50.1 ± 29 | 35.8 ± 25 | 64.6 ± 28 |
| C=CC(C)(O)CCC=C(C)C (stereo not given) [Linalool] | 60.6 ± 32 | 39.9 ± 30 | 74.6 ± 19 | 66 ± 23 | 62.1 ± 26 | 32.6 ± 25 |  |  |  |  |  |  |
| C=CC(C)(CCC=C(C)C)OC(C)=O (stereo not given) [Linalyl acetate] | 39.3 ± 31 | 38.1 ± 31 | 56.9 ± 24 | 44.5 ± 21 | 29.8 ± 30 | 31.5 ± 30 |  |  |  |  |  |  |
| CCCCC/C=C\C/C=C\CCCCCCCC(=O)O [Linoleic acid (replicate)] | 53.2 ± 30 |  | 31.7 ± 20 |  | 66.6 ± 26 |  |  |  |  | 46.6 ± 35 | 20.4 ± 24 | 91.6 ± 11 |
| CCCCC/C=C\C/C=C\CCCCCCCC(=O)O [Linoleic acid] | 41.2 ± 27 |  | 31.2 ± 21 |  | 64.8 ± 23 |  |  |  |  | 48.7 ± 34 | 13.9 ± 15 | 90.8 ± 13 |
| CC(C)CC(=O)O[C@@H]1C[C@H](C)CC[C@H]1C(C)C [Menthyl isovalerate] | 39.5 ± 27 | 35 ± 33 | 56.9 ± 25 | 49.4 ± 24 | 33.9 ± 28 | 18.6 ± 24 |  |  |  |  |  |  |
| COC(=O)c1ccccc1OC [Methyl 2-methoxybenzoate] | 40.8 ± 31 | 37.5 ± 28 | 48.1 ± 26 | 45.9 ± 25 | 47.5 ± 31 | 20.6 ± 24 |  |  |  |  |  |  |
| CCCCCCC#CC(=O)OC [Methyl 2-nonynoate] | 61.9 ± 33 | 55.3 ± 28 | 65 ± 27 | 58.5 ± 29 | 71.1 ± 21 | 55.3 ± 30 |  |  |  |  |  |  |
